Values of other authors as cited in patent US12133876B2, “TryNOVID boosts immune system against viruses and variants” (priority 2022, dated 2024).

Assays:
enveloped viruses = conditions: Coronavirus, HIV, Measles virus, Herpes simplex virus type 1 and 2, Influenza virus and other listed enveloped viruses (Lieberman et al., 2006)
COVID-19 = conditions: high dose; patients requiring hospitalization due to proven COVID-19; plus best-available therapy versus best-available therapy
SARS-COV-2 = conditions: binding to SARS-COV-2 (Kulkarni et al., 2020)

For `CCCCCCCCCCCC(=O)OCC(O)CO` (stereo not shown) [Monolaurin, glycerol monolaurate], which “inactivation of enveloped viruses” value (enveloped viruses) is on record?
The value was “able to inactivate”.

Which “need for ICU treatment” value (COVID-19) does the source give for `C=C1CC[C@H](O)C/C1=C/C=C1\CCC[C@]2(C)[C@@H]([C@H](C)CCCC(C)(C)O)CC[C@@H]12` [calcifediol, 25-hydroxyvitamin D] here?
The value was “significantly reduced”.

Which “binding affinities in molecular docking” value (SARS-COV-2) does the source give for `C=C1C2CCC(C2)C1(C)C` (stereo not shown) [camphene] here?
Its value is “good binding affinities”.

Which “binding affinities in molecular docking” value (SARS-COV-2) does the source give for `CC1CCC(C(C)C)C(O)C1` (stereo not shown) [menthol] here?
Its value is “good binding affinities”.

With `C=CC(C)=CCC=C(C)C` [ocimene] as the compound, how does the “binding affinities in molecular docking” value (SARS-COV-2) read?
Its value is “good binding affinities”.

Which “binding affinities in molecular docking” value (SARS-COV-2) does the source give for `CC(C)=C1CC[C@@H](C)CC1=O` [pulegone] here?
The value was “good binding affinities”.

With `Cc1ccc(C(C)C)c(O)c1` [thymol] as the compound, how does the “binding affinities in molecular docking” value (SARS-COV-2) read?
The value was “good binding affinities”.
